Laboratory results reported in ChEMBL document CHEMBL3407455, “Discovery of highly potent, selective, and efficacious small molecule inhibitors of ERK1/2” (J Med Chem, 2015).

Assays:
[1] = in vivo; conditions: CD-1, mouse, iv, 1 mg/kg
[2] = in vivo; conditions: CD-1, mouse, plasma, po, 5 mg/kg
[3] = in vivo; conditions: CD-1, mouse, po, 5 mg/kg
[4] = in vitro; conditions: dog, MDCK
[5] = in vivo; conditions: nude, mouse, po, 5 mg/kg
[6] = in vivo; conditions: nude, mouse, po, 5 mg/kg; remark: listed apart in the source
[7] = in vivo; conditions: nude, mouse, plasma, po, 5 mg/kg
[8] = in vivo; conditions: nude, mouse, po, 5 mg/kg; remark: listed apart in the source
[9] = in vivo; conditions: nude, mouse, iv, 1 mg/kg
[10] = in vivo; conditions: nude, mouse, po, 30 mg/kg
[11] = in vivo; conditions: nude, mouse, po, 30 mg/kg; remark: listed apart in the source
[12] = in vivo; conditions: nude, mouse, plasma, po, 30 mg/kg
[13] = in vivo; conditions: nude, mouse, po, 100 mg/kg
[14] = in vivo; conditions: nude, mouse, po, 100 mg/kg; remark: listed apart in the source
[15] = in vivo; conditions: nude, mouse, plasma, po, 100 mg/kg
[16] = in vivo; conditions: nude, mouse, po, 100 mg/kg; remark: listed apart in the source
[17] = in vivo; conditions: nude, mouse, po, 150 mg/kg
[18] = in vivo; conditions: nude, mouse, po, 150 mg/kg; remark: listed apart in the source
[19] = in vivo; conditions: nude, mouse, plasma, po, 150 mg/kg
[20] = in vivo; conditions: nude, mouse, po, 150 mg/kg; remark: listed apart in the source
[21] = in vivo; conditions: rat, po, 5 mg/kg
[22] = in vivo; conditions: rat, po, 5 mg/kg; remark: listed apart in the source
[23] = in vivo; conditions: rat, plasma, po, 5 mg/kg
[24] = in vivo; conditions: rat, po, 5 mg/kg; remark: listed apart in the source
[25] = in vivo; conditions: rat, iv, 1 mg/kg
[26] = in vivo; conditions: dog, po, 5 mg/kg
[27] = in vivo; conditions: dog, po, 5 mg/kg; remark: listed apart in the source
[28] = in vivo; conditions: dog, plasma, po, 5 mg/kg
[29] = in vivo; conditions: dog, po, 5 mg/kg; remark: listed apart in the source
[30] = in vivo; conditions: dog, iv, 2 mg/kg
[31] = in vivo; conditions: cynomolgus monkey, po, 5 mg/kg
[32] = in vivo; conditions: cynomolgus monkey, po, 5 mg/kg; remark: listed apart in the source
[33] = in vivo; conditions: cynomolgus monkey, plasma, po, 5 mg/kg
[34] = in vivo; conditions: cynomolgus monkey, po, 5 mg/kg; remark: listed apart in the source
[35] = in vivo; conditions: cynomolgus monkey, iv, 2 mg/kg

SMILES: O=c1cc(-c2ccnc(NC3CCOCC3)n2)ccn1[C@H](CO)c1cccc(Cl)c1
- clearance [1]: 114 mL/min/kg
- AUC [2]: 0.59 µM·h
- bioavailability [3]: 38%
- Papp A→B [4]: 8.5 ×10⁻⁶ cm/s

SMILES: O=c1cc(-c2ccnc(NC3CCOCC3)n2)ccn1[C@H](CO)c1cccc(F)c1
- clearance [1]: 39 mL/min/kg
- AUC [2]: 1.72 µM·h
- bioavailability [3]: 36%
- Papp A→B [4]: 5.5 ×10⁻⁶ cm/s

SMILES: O=c1cc(-c2ccnc(NC3CCOCC3)n2)ccn1[C@H](CO)c1ccc(Cl)c(F)c1
- clearance [1]: 33 mL/min/kg
- AUC [2]: 3.05 µM·h
- bioavailability [3]: 66%
- Cmax [5]: 3.12 µM
- half-life [6]: 3.52 h
- AUC [7]: 5.4 µM·h
- bioavailability [8]: 139%
- clearance [9]: 40 mL/min/kg
- Cmax [10]: 20.2 µM
- half-life [11]: 2.33 h
- AUC [12]: 46.8 µM·h
- Cmax [13]: 38.9 µM
- half-life [14]: 1.71 h
- AUC [15]: 129 µM·h
- bioavailability [16]: 139%
- Cmax [17]: 67.7 µM
- half-life [18]: 1.97 h
- AUC [19]: 175 µM·h
- bioavailability [20]: 127%
- Cmax [21]: 1.49 µM
- half-life [22]: 1.16 h
- AUC [23]: 2.15 µM·h
- bioavailability [24]: 44%
- clearance [25]: 39 mL/min/kg
- Cmax [26]: 2.91 µM
- half-life [27]: 1.55 h
- AUC [28]: 4.87 µM·h
- bioavailability [29]: 46%
- clearance [30]: 18 mL/min/kg
- Cmax [31]: 0.98 µM
- half-life [32]: 2.39 h
- AUC [33]: 3.3 µM·h
- bioavailability [34]: 22%
- clearance [35]: 12 mL/min/kg
- Papp A→B [4]: 11.3 ×10⁻⁶ cm/s

SMILES: O=c1cc(-c2ccnc(NC3CCOCC3)n2)ccn1[C@H](CO)c1ccc(F)c(Cl)c1
- clearance [1]: 63 mL/min/kg
- AUC [2]: 2.18 µM·h
- bioavailability [3]: 76%
- Papp A→B [4]: 4.6 ×10⁻⁶ cm/s
